In patent US20090264384A1, “INDOLE, BENZIMIDAZOLE, AND BENZOLACTAM BORONIC ACID COMPOUNDS, ANALOGS THEREOF AND METHODS OF USE THEREOF” (Nuada, Inc., priority 2004, published 2009):

How the values were obtained:
TRH = TRH binding assay; parameters: species or system rat; settings: 1.0E−05 M
ETB(h) = biological target: T1, ETB(h) (Homo sapiens, UniProt P24530); test: ETB(h) binding assay; settings: read-out: % Inhibition of Control Specific Binding
T1 construct: expressed in transfected cells; host or cells: CHO cells

Choline transporter = biological target: T2, Choline transporter (Rattus norvegicus, UniProt Q9JMD7); test: Choline transporter binding assay; settings: 1.0E−05 M; read-out: % Inhibition of Control Specific Binding
T2 construct: rat striatum; from tissue; host or cells: rat striatum
T2 sequence (Q9JMD7 1-580): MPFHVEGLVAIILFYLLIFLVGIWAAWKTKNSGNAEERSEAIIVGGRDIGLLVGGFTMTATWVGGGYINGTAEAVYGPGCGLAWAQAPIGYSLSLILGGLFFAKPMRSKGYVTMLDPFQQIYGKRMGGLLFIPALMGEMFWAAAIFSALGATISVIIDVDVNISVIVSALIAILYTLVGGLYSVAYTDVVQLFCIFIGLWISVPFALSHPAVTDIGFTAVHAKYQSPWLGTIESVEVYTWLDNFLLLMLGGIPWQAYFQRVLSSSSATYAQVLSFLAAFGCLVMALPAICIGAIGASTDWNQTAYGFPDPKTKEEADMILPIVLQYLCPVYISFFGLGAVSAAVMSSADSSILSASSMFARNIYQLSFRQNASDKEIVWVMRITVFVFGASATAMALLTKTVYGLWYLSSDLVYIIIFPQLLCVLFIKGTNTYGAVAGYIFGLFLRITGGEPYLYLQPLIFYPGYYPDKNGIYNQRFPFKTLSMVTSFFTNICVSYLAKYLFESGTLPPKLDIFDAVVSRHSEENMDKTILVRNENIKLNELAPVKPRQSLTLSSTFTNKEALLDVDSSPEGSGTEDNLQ

ETA(h) = biological target: T3, ETA(h) (Homo sapiens, UniProt P25101); test: ETA(h) binding assay; settings: 1.0E−05 M; read-out: % Inhibition of Control Specific Binding
T3 construct: expressed in transfected cells; host or cells: CHO cells

P2Y = P2Y binding assay; parameters: species or system rat; settings: 1.0E−05 M
5-HT transporter(h) = biological target: T4, 5-HT transporter(h) (Homo sapiens, UniProt P31645); test: 5-HT transporter(h) binding assay; settings: read-out: % Inhibition of Control Specific Binding
T4 construct: expressed in transfected cells; host or cells: HEK-293 cells

MC4(h) = biological target: T5, MC4(h) (Homo sapiens, UniProt P32245); test: MC4(h) binding assay; settings: 1.0E−05 M; read-out: % Inhibition of Control Specific Binding
T5 construct: expressed in transfected cells; host or cells: HEK-293 cells

K^+ATP channel = biological target: T6, K^+ATP channel (Rattus norvegicus, UniProt Q09429); test: K^+ATP channel binding assay; settings: 1.0E−05 M; read-out: % Inhibition of Control Specific Binding
T6 construct: rat cerebral; from tissue; host or cells: rat cerebral cortex

Phosphodiesterase 3(h) = Phosphodiesterase 3(h) (Homo sapiens, UniProt Q14432); test: Phosphodiesterase 3(h) enzyme assay; type: biochemical; settings: 1.0E−05 M
Phosphodiesterase 4(h) = Phosphodiesterase 4(h) enzyme assay; type: biochemical, human; settings: 1.0E−05 M
CCKA(h) (CCK1) = biological target: T7, CCKA(h) (CCK1) (Homo sapiens, UniProt P32238); test: CCKA(h) (CCK1) binding assay; settings: read-out: % Inhibition of Control Specific Binding
T7 construct: expressed in transfected cells; host or cells: CHO cells

CCKB(h) (CCK2) = biological target: T8, CCKB(h) (CCK2) (Homo sapiens, UniProt P32239); test: CCKB(h) (CCK2) binding assay; settings: read-out: % Inhibition of Control Specific Binding
T8 construct: expressed in transfected cells; host or cells: HEK-293 cells

H1(h) = biological target: T9, H1(h) (Homo sapiens, UniProt P35367); test: biochemical; settings: 1.0E−05 M; read-out: % Inhibition of Control Specific Binding
T9 construct: expressed in transfected cells; host or cells: HEK-293 cells

Progesterone(h) (PR) = Progesterone(h) (PR) binding assay; parameters: species or system human; settings: 1.0E−05 M
TNF-α production by PMBC = test: Inhibition of TNF-α Production By Peripheral Blood Monocyte Cells (PMBC), LPS stimulated; type: cell-based; settings: 1 ug/mL LPS, 24 hours
Description: PMBC in RPMI 1640 Cell Culture Medium (containing 1% Penicillin and 1% Streptomycin) are aliquoted into 96-well plates at 5×10^5 cells/well and pre-incubated with test compounds for 30 minutes at 37° C. After incubation, 1 ug/mL LPS is added to each well to stimulate TNF-α production and the plate is incubated for 24 hours at 37° C. After incubation, the supernatant is removed and the TNF-α secreted is quantified using EIA detection kits commercially available from R&D Systems (USA). The results from this assay are expressed as percent inhibition of control activity, with the control being stimulated wells with no test compound. Dexamethasone is used as a standard reference compound in the assay and is tested with each experiment. All test compounds are diluted from 10 mM stock solutions in 100% DMSO.

PCP = PCP binding assay; parameters: species or system rat; settings: 1.0E−05 M
CYP2D6 = CYP2D6 (Homo sapiens, UniProt P10635); test: ADME-Tox: In vitro Metabolism (Cytochrome P450, fluorogenic substrates BFC, CEC, MFC); parameters: inhibition: dose or concentration left out as unconfirmed; settings: human
CYP2C19 = CYP2C19 (Homo sapiens, UniProt P33261); test: as above; parameters: inhibition: dose or concentration left out as unconfirmed; settings: human
CYP3A4 = CYP3A4 (Homo sapiens, UniProt P08684); test: as above; parameters: inhibition: dose or concentration left out as unconfirmed; settings: human
CYP2C9 = CYP2C9 (Homo sapiens, UniProt P11712); test: as above; parameters: inhibition: dose or concentration left out as unconfirmed; settings: human
CYP1A2 = CYP1A2 (Homo sapiens, UniProt P05177); test: as above; parameters: inhibition: dose or concentration left out as unconfirmed; settings: human
AT1(h) = biological target: T10, AT1(h) (Homo sapiens, UniProt P30556); test: AT1(h) binding assay; settings: read-out: % Inhibition of Control Specific Binding
T10 construct: expressed in transfected cells; host or cells: CHO cells

Opiate (non-selective) = Opiate (non-selective) binding assay; parameters: species or system rat; settings: 1.0E−05 M
ATPase (Na^+/K^+) = biological target: T11, ATPase (Na^+/K^+) (Canis lupus familiaris, UniProt P50997); test: ATPase (Na^+/K^+) enzyme assay; type: biochemical, dog; settings: 1.0E−05 M
T11 construct: dog kidney; from tissue; host or cells: dog kidney

T9 sequence (P35367 whole entry): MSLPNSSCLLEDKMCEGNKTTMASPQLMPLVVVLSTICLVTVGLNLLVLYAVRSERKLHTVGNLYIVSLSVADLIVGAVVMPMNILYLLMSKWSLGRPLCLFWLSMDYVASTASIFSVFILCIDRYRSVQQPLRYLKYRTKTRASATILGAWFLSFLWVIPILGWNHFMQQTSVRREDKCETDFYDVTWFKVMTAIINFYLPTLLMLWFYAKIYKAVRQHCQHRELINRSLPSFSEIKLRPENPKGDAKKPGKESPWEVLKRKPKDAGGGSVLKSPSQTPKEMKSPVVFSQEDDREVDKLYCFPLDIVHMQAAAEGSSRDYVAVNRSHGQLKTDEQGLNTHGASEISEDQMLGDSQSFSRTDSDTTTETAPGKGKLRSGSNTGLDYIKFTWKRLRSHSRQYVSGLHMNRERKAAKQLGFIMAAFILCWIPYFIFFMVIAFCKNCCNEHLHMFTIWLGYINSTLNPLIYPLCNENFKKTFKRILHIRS
Chain of CYP2C9 (P11712 whole entry): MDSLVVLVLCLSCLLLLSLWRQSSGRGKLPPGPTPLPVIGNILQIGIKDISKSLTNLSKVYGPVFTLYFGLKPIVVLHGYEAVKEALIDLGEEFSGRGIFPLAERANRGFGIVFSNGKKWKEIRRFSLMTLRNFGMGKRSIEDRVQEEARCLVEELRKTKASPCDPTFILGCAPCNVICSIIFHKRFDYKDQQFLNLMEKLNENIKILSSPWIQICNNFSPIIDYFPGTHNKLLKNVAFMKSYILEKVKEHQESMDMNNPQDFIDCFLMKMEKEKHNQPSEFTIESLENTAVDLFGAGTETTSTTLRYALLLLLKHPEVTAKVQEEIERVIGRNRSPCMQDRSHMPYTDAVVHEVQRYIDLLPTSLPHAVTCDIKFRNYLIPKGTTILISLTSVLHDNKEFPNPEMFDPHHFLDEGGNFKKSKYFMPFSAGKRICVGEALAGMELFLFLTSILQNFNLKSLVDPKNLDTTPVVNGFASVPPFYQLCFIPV
Chain of Phosphodiesterase 3(h) (Q14432 674-1093 limits assumed): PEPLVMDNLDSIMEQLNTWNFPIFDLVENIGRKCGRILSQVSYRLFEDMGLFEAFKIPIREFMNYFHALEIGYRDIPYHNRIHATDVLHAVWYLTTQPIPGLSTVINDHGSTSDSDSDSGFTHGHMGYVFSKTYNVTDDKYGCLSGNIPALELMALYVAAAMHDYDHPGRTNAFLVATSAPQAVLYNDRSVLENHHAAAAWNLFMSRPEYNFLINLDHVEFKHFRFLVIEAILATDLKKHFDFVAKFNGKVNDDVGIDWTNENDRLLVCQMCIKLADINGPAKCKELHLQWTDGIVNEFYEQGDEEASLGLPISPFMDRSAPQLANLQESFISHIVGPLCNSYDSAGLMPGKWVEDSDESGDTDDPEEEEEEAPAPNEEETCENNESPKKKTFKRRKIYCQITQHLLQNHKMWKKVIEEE
Chain of CYP2D6 (P10635 whole entry): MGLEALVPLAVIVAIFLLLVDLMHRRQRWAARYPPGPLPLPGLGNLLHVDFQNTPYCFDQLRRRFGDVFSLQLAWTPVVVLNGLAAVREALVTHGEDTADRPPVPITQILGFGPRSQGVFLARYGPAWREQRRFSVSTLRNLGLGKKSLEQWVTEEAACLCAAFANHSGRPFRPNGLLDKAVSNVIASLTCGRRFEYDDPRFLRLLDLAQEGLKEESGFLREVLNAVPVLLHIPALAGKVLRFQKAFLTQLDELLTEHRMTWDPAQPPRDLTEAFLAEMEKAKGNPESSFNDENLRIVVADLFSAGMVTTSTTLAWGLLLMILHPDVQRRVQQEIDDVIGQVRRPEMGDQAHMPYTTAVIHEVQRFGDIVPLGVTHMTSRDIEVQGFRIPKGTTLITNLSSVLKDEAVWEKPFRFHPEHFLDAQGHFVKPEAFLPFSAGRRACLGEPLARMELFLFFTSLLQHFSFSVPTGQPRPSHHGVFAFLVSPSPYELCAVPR
Chain of CYP3A4 (P08684 whole entry): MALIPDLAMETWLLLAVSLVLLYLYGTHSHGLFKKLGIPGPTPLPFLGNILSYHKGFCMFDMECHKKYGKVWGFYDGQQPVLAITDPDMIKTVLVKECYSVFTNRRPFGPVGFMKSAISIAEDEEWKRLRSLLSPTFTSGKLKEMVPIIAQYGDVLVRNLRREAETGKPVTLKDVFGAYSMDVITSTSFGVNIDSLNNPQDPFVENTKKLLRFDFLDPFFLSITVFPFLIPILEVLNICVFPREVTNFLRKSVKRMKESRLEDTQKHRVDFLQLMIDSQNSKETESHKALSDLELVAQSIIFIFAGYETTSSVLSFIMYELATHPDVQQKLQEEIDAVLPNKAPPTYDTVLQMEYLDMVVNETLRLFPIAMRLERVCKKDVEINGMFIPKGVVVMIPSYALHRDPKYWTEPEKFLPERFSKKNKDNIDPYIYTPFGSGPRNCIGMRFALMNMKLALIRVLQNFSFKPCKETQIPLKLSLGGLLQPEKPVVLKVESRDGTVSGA
T3 sequence (P25101 21-427): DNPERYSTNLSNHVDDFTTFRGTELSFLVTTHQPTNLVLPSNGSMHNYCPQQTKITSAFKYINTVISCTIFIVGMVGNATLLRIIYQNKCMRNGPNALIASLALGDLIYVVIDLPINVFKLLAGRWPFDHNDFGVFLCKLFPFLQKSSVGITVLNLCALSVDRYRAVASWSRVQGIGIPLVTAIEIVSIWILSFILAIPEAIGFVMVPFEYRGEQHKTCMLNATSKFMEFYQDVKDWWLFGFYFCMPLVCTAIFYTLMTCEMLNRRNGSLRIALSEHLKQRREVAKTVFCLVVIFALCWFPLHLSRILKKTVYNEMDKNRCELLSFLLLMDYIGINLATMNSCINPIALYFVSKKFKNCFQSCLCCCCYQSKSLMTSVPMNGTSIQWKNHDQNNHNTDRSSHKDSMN
T5 sequence (P32245 whole entry): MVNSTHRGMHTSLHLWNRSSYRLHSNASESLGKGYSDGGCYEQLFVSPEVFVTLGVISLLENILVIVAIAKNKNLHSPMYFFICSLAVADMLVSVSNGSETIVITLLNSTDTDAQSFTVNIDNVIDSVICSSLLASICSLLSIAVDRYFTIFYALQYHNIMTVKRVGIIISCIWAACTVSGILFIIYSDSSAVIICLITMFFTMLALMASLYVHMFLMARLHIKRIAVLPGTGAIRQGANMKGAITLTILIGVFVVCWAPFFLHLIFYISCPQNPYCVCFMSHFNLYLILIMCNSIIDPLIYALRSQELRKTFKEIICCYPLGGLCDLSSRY
T7 sequence (P32238 whole entry): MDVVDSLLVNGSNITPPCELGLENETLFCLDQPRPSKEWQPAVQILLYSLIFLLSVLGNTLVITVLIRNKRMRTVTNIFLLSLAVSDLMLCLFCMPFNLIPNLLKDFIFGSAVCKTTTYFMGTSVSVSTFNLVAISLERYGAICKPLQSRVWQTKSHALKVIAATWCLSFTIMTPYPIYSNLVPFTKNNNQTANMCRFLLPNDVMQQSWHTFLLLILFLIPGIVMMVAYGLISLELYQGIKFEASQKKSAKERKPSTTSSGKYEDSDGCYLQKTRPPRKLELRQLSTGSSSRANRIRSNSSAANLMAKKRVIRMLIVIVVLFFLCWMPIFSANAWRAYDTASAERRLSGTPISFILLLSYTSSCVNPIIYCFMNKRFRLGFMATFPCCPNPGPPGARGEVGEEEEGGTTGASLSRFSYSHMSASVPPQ
T4 sequence (P31645 whole entry): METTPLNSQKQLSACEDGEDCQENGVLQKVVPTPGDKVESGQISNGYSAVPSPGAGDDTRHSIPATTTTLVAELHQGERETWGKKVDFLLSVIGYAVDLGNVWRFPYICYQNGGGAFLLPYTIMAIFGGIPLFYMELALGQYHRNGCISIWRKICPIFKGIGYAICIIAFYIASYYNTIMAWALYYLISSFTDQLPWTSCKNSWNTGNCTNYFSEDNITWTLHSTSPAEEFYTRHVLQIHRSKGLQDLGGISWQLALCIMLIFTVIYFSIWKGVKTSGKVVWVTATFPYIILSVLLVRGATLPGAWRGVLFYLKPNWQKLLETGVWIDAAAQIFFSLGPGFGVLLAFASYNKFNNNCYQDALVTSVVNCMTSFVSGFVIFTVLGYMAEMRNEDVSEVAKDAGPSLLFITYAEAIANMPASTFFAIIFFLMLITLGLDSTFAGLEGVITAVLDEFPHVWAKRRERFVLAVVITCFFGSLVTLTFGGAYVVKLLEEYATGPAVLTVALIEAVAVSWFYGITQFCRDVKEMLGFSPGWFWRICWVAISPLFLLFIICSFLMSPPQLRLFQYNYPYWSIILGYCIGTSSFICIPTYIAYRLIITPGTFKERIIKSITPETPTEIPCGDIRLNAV
T1 sequence (P24530 27-442): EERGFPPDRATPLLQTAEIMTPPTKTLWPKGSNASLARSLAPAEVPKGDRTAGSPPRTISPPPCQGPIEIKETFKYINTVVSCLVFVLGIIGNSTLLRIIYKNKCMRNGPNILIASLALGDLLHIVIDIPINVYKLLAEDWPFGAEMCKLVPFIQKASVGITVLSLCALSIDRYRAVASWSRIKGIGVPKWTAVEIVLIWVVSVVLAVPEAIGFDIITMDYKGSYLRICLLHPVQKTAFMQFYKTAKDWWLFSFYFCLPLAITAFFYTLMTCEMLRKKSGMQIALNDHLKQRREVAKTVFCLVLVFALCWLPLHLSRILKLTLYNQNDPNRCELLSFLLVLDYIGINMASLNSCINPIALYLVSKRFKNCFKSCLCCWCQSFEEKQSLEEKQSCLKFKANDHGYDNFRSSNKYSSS
T10 sequence (P30556 whole entry): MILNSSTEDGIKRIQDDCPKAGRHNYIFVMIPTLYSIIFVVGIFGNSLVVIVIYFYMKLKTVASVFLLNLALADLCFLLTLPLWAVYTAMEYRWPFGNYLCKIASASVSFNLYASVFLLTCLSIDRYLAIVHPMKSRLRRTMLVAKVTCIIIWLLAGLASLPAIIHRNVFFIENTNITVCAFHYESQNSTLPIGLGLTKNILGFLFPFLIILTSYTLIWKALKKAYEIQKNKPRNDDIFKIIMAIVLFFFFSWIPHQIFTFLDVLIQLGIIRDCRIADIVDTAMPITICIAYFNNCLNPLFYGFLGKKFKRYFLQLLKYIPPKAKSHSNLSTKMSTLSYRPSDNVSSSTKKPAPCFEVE

For `N#Cc1ccc2c(ccn2CCCCCB(O)O)c1` [Example 20, 5-(5-cyano-1H-indol-1-yl)pentylboronic acid], the “% Inhibition of Control Specific Binding” value (TRH) was −17%, the inhibition at 10 µM (ETB(h)) was 10% and the inhibition at 10 µM (Choline transporter) was 1%. The inhibition at 10 µM (ETA(h)) was -25%, the “% Inhibition of Control Specific Binding” value (P2Y) was −19% and the inhibition at 10 µM (5-HT transporter(h)) was 90%. The inhibition at 10 µM (MC4(h)) was 2%, the inhibition at 10 µM (K^+ATP channel) was 25% and the “% Inhibition of Control Values” (Phosphodiesterase 3(h)) was 95%. For the same compound, the “% Inhibition of Control Values” (Phosphodiesterase 4(h)) was 91%, the inhibition at 10 µM (CCKA(h) (CCK1)) was 7% and the inhibition at 10 µM (CCKB(h) (CCK2)) was 5%. For the same compound, the inhibition at 10 µM (H1(h)) was 6%, the “% Inhibition of Control Specific Binding” value (Progesterone(h) (PR)) was 79% and the IC50 (TNF-α production by PMBC) was 0.75 µM. The “% Inhibition of Control Specific Binding” value (PCP) was 5%, the inhibition (CYP2D6) was 42% and the inhibition (CYP2C19) was 52%. It also gave an inhibition (CYP3A4) of 97%, an inhibition (CYP2C9) of 73% and an inhibition (CYP1A2) of 40%. The inhibition at 10 µM (AT1(h)) was -3%, the “% Inhibition of Control Specific Binding” value (Opiate (non-selective)) was 20% and the “% Inhibition of Control Values” (ATPase (Na^+/K^+)) was 8%.
